Results taken from patent publication US10167257B2, “Indole derivatives for use in medicine” (IOmet Pharma Ltd., priority 2014, dated 2019).

Key:
IDO (SKOV-3 cells) = biological target: T1, IDO (SKOV-3 cells) (Homo sapiens, UniProt P14902); assay: IDO cell-based assay (SKOV-3, IFNγ-induced), kynurenine production; conditions: SKOV-3 ovary adenocarcinoma cells, IFNγ 500 ng/ml, 500 μM L-Trp, 48 h, kynurenine by absorbance at 490 nm
T1 construct: This assay utilised cancer cells which expressed either TDO or IDO; host or cells: SKOV-3 ovary adenocarcinoma cells, IFNγ-induced
Outline: (§1)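 Kynurenine output was read at 490 nm after 5 min with 1% Ehrlich's reagent, using supernatants from 48 h, 37 °C cultures containing 500 μM L-Trp and test compound. TDO activity came from A172 cells. IDO activity came from SKOV-3 cells, whose expression was induced by adding 500 ng/ml IFNγ.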

TDO (A172 cells) = biological target: T2, TDO (A172 cells) (Homo sapiens, UniProt P48775); assay: TDO cell-based assay (A172), kynurenine production; conditions: A172 human glioblastoma cells, 500 μM L-Trp, 48 h, kynurenine by absorbance at 490 nm
T2 construct: This assay utilised cancer cells which expressed either TDO or IDO; host or cells: A172 human glioblastoma cells
Outline: as §1

T1 sequence (P14902 whole entry): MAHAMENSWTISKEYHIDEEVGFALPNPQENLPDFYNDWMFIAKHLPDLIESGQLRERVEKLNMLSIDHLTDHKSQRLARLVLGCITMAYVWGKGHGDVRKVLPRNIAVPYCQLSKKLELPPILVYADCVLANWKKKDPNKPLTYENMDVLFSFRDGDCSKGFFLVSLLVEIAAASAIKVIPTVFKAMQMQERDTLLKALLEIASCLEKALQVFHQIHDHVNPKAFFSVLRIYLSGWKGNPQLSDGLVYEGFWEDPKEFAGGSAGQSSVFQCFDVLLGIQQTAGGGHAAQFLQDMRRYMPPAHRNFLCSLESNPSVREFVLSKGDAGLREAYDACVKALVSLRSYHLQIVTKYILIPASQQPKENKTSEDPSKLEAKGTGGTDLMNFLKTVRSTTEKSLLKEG
T2 sequence (P48775 whole entry): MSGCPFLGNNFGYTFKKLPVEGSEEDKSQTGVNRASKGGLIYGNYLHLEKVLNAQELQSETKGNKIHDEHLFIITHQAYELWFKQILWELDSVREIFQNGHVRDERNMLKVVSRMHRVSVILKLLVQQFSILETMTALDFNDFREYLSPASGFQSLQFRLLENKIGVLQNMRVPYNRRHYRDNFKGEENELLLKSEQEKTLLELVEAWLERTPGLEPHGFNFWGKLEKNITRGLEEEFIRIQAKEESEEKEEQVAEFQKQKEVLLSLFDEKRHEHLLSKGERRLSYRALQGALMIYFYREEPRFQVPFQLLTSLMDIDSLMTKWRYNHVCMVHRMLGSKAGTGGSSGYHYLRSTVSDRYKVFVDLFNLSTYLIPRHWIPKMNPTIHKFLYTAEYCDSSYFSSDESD

IDO cellular assay (SKOV3) pIC50 (IDO (SKOV-3 cells)) | TDO cellular assay (A172) pIC50 (TDO (A172 cells)) | IC50 (IDO (SKOV-3 cells); read-out: IDO cellular assay (SKOV3) pIC50 (converted)) [µM] | IC50 (TDO (A172 cells); read-out: TDO cellular assay (A172) pIC50 (converted)) [µM] | Compound
+++ (+++ = pIC50 ≥5.50) | − (− = pIC50 <4.50) |  |  | CC(NC(=O)c1cc2cc(Cl)ccc2[nH]1)c1cnn(-c2ccccc2)c1 (centres unmarked) [Compound 124]
+++ (+++ = pIC50 ≥5.50) | + (+ = pIC50 4.50-<5.00) |  |  | COc1cccc(-n2cc(C(C)NC(=O)c3cc4cc(Cl)ccc4[nH]3)cn2)c1 (centres unmarked) [Compound 125]
+++ (+++ = pIC50 ≥5.50) | − (− = pIC50 <4.50) |  |  | CC(C)c1noc(C(C)NC(=O)c2cc3cc(Cl)ccc3[nH]2)n1 (centres unmarked) [Compound 126]
++ (++ = pIC50 5.00-<5.50) | − (− = pIC50 <4.50) |  |  | O=C(NCc1nc(-c2ccccc2)no1)c1cc2cc(Cl)ccc2[nH]1 [Compound 129]
++ (++ = pIC50 5.00-<5.50) | − (− = pIC50 <4.50) |  |  | COCCc1noc(C(C)NC(=O)c2cc3cc(Cl)ccc3[nH]2)n1 (centres unmarked) [Compound 130]
+++ (+++ = pIC50 ≥5.50) | − (− = pIC50 <4.50) |  |  | COc1ccc(-c2noc(C(C)NC(=O)c3cc4cc(Cl)ccc4[nH]3)n2)cc1OC (centres unmarked) [Compound 131]
+++ (+++ = pIC50 ≥5.50) | − (− = pIC50 <4.50) |  |  | CC(NC(=O)c1cc2cc(Cl)ccc2[nH]1)c1cnn(C)c1 (centres unmarked) [Compound 133]
+++ (+++ = pIC50 ≥5.50) | − (− = pIC50 <4.50) |  |  | CC(NC(=O)c1cc2cc(Cl)ccc2[nH]1)c1noc(-c2ccccc2)n1 (centres unmarked) [Compound 134]
+++ (+++ = pIC50 ≥5.50) | − (− = pIC50 <4.50) |  |  | CC(NC(=O)c1cc2cc(Cl)ccc2[nH]1)c1cnn(C(C)C)c1 (centres unmarked) [Compound 135]
+ (+ = pIC50 4.50-<5.00) | − (− = pIC50 <4.50) |  |  | CC1(NC(=O)c2cc3cc(Cl)ccc3[nH]2)CC1 [Compound 139]
+++ (+++ = pIC50 ≥5.50) | − (− = pIC50 <4.50) |  |  | O=C(NC1(c2nc(-c3ccccc3)no2)CC1)c1cc2cc(Cl)ccc2[nH]1 [Compound 140]
 |  | ≤ 3.16 | > 31.6 | Cn1cc(C2(NC(=O)c3cc4cc(Cl)ccc4[nH]3)CC2)cn1 [Compound 141]
+++ (+++ = pIC50 ≥5.50) | − (− = pIC50 <4.50) |  |  | COc1ccc(-n2cc(C(C)NC(=O)c3cc4cc(Cl)ccc4[nH]3)cn2)cc1 (centres unmarked) [Compound 146]
+++ (+++ = pIC50 ≥5.50) | − (− = pIC50 <4.50) |  |  | CC(=O)N1CC(C(C)NC(=O)c2cc3cc(Cl)ccc3[nH]2)C1 (centres unmarked) [Compound 147]
+++ (+++ = pIC50 ≥5.50) | ++ (++ = pIC50 5.00-<5.50) |  |  | COc1ccc(C2(NC(=O)c3cc4cc(Cl)ccc4[nH]3)CC2)cc1 [Compound 150]
++ (++ = pIC50 5.00-<5.50) | − (− = pIC50 <4.50) |  |  | CC(NC(=O)c1cc2cc(Cl)ccc2[nH]1)C1CN(S(C)(=O)=O)C1 (centres unmarked) [Compound 152]
+ (+ = pIC50 4.50-<5.00) | − (− = pIC50 <4.50) |  |  | CC(CN(C)S(C)(=O)=O)NC(=O)c1cc2cc(Cl)ccc2[nH]1 (centres unmarked) [Compound 154]
+++ (+++ = pIC50 ≥5.50) | − (− = pIC50 <4.50) |  |  | O=C(NC1(c2ccccn2)CC1)c1cc2cc(Cl)ccc2[nH]1 [Compound 155]
++ (++ = pIC50 5.00-<5.50) | − (− = pIC50 <4.50) |  |  | CC(NC(=O)c1cc2cc(C(F)(F)F)ccc2[nH]1)c1cnn(C)c1 (centres unmarked) [Compound 157]

Further lines, the molecule ahead of its results:

Compound | IDO cellular assay (SKOV3) pIC50 (IDO (SKOV-3 cells)) | TDO cellular assay (A172) pIC50 (TDO (A172 cells)) | IC50 (IDO (SKOV-3 cells); read-out: IDO cellular assay (SKOV3) pIC50 (converted)) [µM] | IC50 (TDO (A172 cells); read-out: TDO cellular assay (A172) pIC50 (converted)) [µM]
C[C@@H](NS(=O)(=O)c1cc2cc(F)ccc2[nH]1)c1ccccc1 [Compound 127] | + (+ = pIC50 4.50-<5.00) | − (− = pIC50 <4.50) |  | 
O=C(NC1(c2ccccc2)CC1)c1cc2cc(Cl)ccc2[nH]1 [Compound 128] | +++ (+++ = pIC50 ≥5.50) | + (+ = pIC50 4.50-<5.00) |  | 
O=C(NC1(c2ccccc2)CCC1)c1cc2cc(Cl)ccc2[nH]1 [Compound 132] | +++ (+++ = pIC50 ≥5.50) | + (+ = pIC50 4.50-<5.00) |  | 
N#Cc1ccc2[nH]c(C(=O)NC3(c4ccccc4)CC3)cc2c1 [Compound 136] | +++ (+++ = pIC50 ≥5.50) | − (− = pIC50 <4.50) |  | 
N#Cc1ccc2[nH]c(C(=O)NC3(c4ccc(F)cc4)CC3)cc2c1 [Compound 137] | +++ (+++ = pIC50 ≥5.50) | − (− = pIC50 <4.50) |  | 
O=C(NC1(c2ccc(F)cc2)CC1)c1cc2cc(Cl)ccc2[nH]1 [Compound 138] | +++ (+++ = pIC50 ≥5.50) | − (− = pIC50 <4.50) |  | 
O=C(NC1(c2ccccc2)COC1)c1cc2cc(Cl)ccc2[nH]1 [Compound 142] | +++ (+++ = pIC50 ≥5.50) | + (+ = pIC50 4.50-<5.00) |  | 
O=C(NC1(c2ccn(-c3ccccc3)n2)CC1)c1cc2cc(Cl)ccc2[nH]1 [Compound 143] | +++ (+++ = pIC50 ≥5.50) | + (+ = pIC50 4.50-<5.00) |  | 
O=C(NC1(C2CCOCC2)CC1)c1cc2cc(Cl)ccc2[nH]1 [Compound 144] | +++ (+++ = pIC50 ≥5.50) | + (+ = pIC50 4.50-<5.00) |  | 
Cn1cc(C2(NC(=O)c3cc4cc(C#N)ccc4[nH]3)CC2)cn1 [Compound 145] | +++ (+++ = pIC50 ≥5.50) | − (− = pIC50 <4.50) |  | 
O=C(NC1(c2ccc(Cl)cc2)CC1)c1cc2cc(Cl)ccc2[nH]1 [Compound 148] | +++ (+++ = pIC50 ≥5.50) | + (+ = pIC50 4.50-<5.00) |  | 
O=C(NC1(c2cnn(-c3ccccc3)c2)CC1)c1cc2cc(Cl)ccc2[nH]1 [Compound 151] | +++ (+++ = pIC50 ≥5.50) | − (− = pIC50 <4.50) |  | 
O=C(NC1(c2cccnc2)CC1)c1cc2cc(Cl)ccc2[nH]1 [Compound 153] | +++ (+++ = pIC50 ≥5.50) | − (− = pIC50 <4.50) |  | 
O=C(NC1(c2ccccc2)CC1)c1cc2cc(C(F)(F)F)ccc2[nH]1 [Compound 156] | +++ (+++ = pIC50 ≥5.50) | − (− = pIC50 <4.50) |  | 
C[C@@H](NC(=O)c1cc2cc(C(F)(F)F)ccc2[nH]1)c1ccccc1 [Compound 158] | +++ (+++ = pIC50 ≥5.50) | − (− = pIC50 <4.50) |  | 
COc1ccc2cc(C(=O)N[C@H](C)c3ccccc3)[nH]c2c1 [Compound 159] | ++ (++ = pIC50 5.00-<5.50) | − (− = pIC50 <4.50) |  | 
CC(=O)N1CCC(C2(NC(=O)c3cc4cc(Cl)ccc4[nH]3)CC2)CC1 [Compound 160] | +++ (+++ = pIC50 ≥5.50) | − (− = pIC50 <4.50) |  | 
CS(=O)(=O)N1CCC(C2(NC(=O)c3cc4cc(Cl)ccc4[nH]3)CC2)CC1 [Compound 161] | +++ (+++ = pIC50 ≥5.50) | − (− = pIC50 <4.50) |  | 
